Reference: US9241976B2, “Use of HDL-related molecules to treat and prevent proinflammatory conditions” (THE REGENTS OF THE UNIVERSITY OF CALIFORNIA, priority 2011, dated 2016)
Square brackets hold non-standard residues; d marks the D form. Ends that are not written are not given here. Peptide text beside a SMILES is read from it. * marks the point of attachment. Cbz = O=C(OCc1ccccc1)*; Aib = CC(C)(N)C(=O)O

What was measured:
NIH3T3 cells [1] = assay: UV-induced cell death, NIH3T3 cell viability; assay type: cell-based; settings: pre-treatment 10 μg/ml for 24 hrs; UV 5, 10, 20 mJ/cm^2
Procedure: NIH 3T3 ([…]) ells were seeded in 96 well plates in 4 separate plates. After 24 hrs, cells were starved overnight. Apo A-l was used at a concentration (10 μg/ml) to treat the cells for 24 hrs. After treatment of cells were washed with PBS. One plate was used as a control without UV treatment. The remaining three plates were used for UV treatment at 5, 10, and 20 mJ/cm^2. Following UV treatment, cells were given complete media and were cultured for another 24 hrs. Cell viability was measured for all the plates as described previously (Ganapathy E, et al., 2011, D-4F, an apoA-1 mimetic peptide inhibits proliferation and tumorigenicity of epithelial ovarian cancer cells by upregulating the antioxidant enzyme MnSOD, Int J Cancer 130:1071-1081).

CT26 cells [2] = assay: Tumor-load study: CT26 flank tumors in BALB/c mice; assay type: in vivo, mouse; settings: for flank tumor weight / flank tumor volume: Example 3, 10 mg/kg subcutaneous daily for 15 days
Procedure: (§1) 6-week-old BALB/c female mice were given a 100 μL subcutaneous injection of 1×10^6 CT26 cells prepared as a single cell suspension in PBS, and the mice were treated with bHDLor BHDLat 10 mg/kg administered subcutaneously (SQ) daily for 15 days. The mice were sacrificed and tumor weights were measured.
6-week-old BALB/c female mice were given a 100 μl subcutaneous injection of 1×10^6 CT26 cells prepared as a single cell suspension in PBS, treated with peptide at 10 mg/kg by SQ daily for 15 days.
The mice were killed and tumor weights were measured. The tumor volumes were measured using the formula V=½ (L×W^2).
as §1, with “Six-week-old” for “6-week-old”, “[…]” for “μL”, “sc-4F or L-4F at” for “bHDLor BHDLat”, “subcutaneously” for “subcutaneously (SQ)”

NIH3T3 cells [3] = assay: NIH3T3 cell viability, MTS assay; assay type: cell-based; settings: 10 μg/mL, 48 hours
Procedure: CT26 and NIH3T3 cells (2,000 cells per well) were first cultured in complete medium in 96-well culture plates, and 24 hours later the medium was replaced with serum-free medium. […] Cells were incubated for an additional 48 hours and assayed for viability using MTS assays kit (Promega) according to the manufacturer's protocol.

CT26 cells [4] = assay: CT26 cell viability, MTS assay; settings: for Cell viability reduced by, compared with control: Example 3, CT26 cells, 10 μg/ml, 48 hours; for CT26 cell viability vs vehicle-treated controls: Example 6, MTS assay, within 48 hours of treatment
Procedure: CT26 cell line derived from N-nitroso-N-methyl urethane-induced mouse colon carcinoma of BALB/c origin was purchased from the American Type Culture Collection (ATCC). CT26 cells (2,000 cells per well) were first cultured in complete medium in 96-well culture plates, and 24 hours later the medium was replaced with serum free medium. Following an overnight incubation, the cells were either treated with vehicle (control), or treated with 10 μg/mL of either bHDL. The bHDL were dissolved in H2O. Cells were incubated for an additional 48 hours and assayed for viability using the MTS assays kit (Promega) according to the manufacturer's protocol.
CT26 cell line derived from N-nitroso-N-methyl urethane-induced mouse colon carcinoma of BALB/c origin was purchased from the American Type Culture Collection. CT26 cells (2,000 cells per well) were first cultured in complete medium in 96-well culture plates, and 24 hours later the medium was replaced with serum-free medium. Following an overnight incubation, the cells were either treated with vehicle (control) or treated with 10 mg/mL of either L-4F or G* peptide. The peptides were dissolved in H2O. Cells were incubated for an additional 48 hours and assayed for viability using the MTS assay kit (Promega) according to the manufacturer's protocol.

HIF-1α = HIF-1α protein expression in human ovarian cancer cell lines, Western blot; assay type: cell-based; settings: OV2008 cells; MG-132 10 μM 3 h, L-4F 10 μg/ml 1 h, insulin 200 nM 4 h
Procedure: OV2008 cells were cultured in RPMI 1640 media with 10% fetal bovine serum, penicillin (100 U/ml), streptomycin (100 μg/ml), 1× minimal essential medium nonessential amino acid solution (Invitrogen, Carlsbad, Calif.), and insulin (0.25 U/ml) (Invitrogen). CAOV-3 cells were cultured in complete media consisting of Dulbecco's modified Eagle's medium with high glucose and L-glutamine (2 mM), 10% fetal bovine serum, penicillin (100 U/ml), streptomycin (100 μg/ml), and insulin (0.02 U/ml). To create hypoxic conditions, cells were transferred to a hypoxic chamber (model 3130; Thermo Fisher Scientific, Waltham, Mass.), where they were maintained at 37° C. in an atmosphere containing 5% CO2, 1% O2, and 94% N2. L-4F (the peptide Ac-D-W-F-K-A-F-Y-D-K-V-A-E-K-F-K-E-A-F-NH2 (SEQ ID NO: 12) synthesized from all L amino acids) was dissolved in water at 1 mg/ml (freshly prepared every time) and used between 1 and 10 μg/ml. L-5F was synthesized by Peptisyntha Inc. (Torrance, Calif.), dissolved in ABCT buffer (50 mM ammonium bicarbonate, pH 7.0, containing 0.1 mg/ml Tween 20) at 1 mg/ml, and diluted to the required concentrations before use. Cobalt chloride (CoCl2), insulin, cycloheximide (CHX), and N-(benzyloxycarbonyl)leucinylleucinylleucinal-Z-Leu-Leu-Leu-al (MG-132) were purchased from Sigma-Aldrich (St. Louis, Mo.). LPA (Avanti Polar Lipids, Alabaster, Ala.) in chloroform was dried as recommended by the manufacturer, dissolved in ethanol at a concentration of 20 mM as a stock solution, and diluted to the required concentrations in the corresponding cell culture media before use.
Western blot analyses were performed as described previously (Gao et al., 2011). In brief, cell lysates were collected in a lysis buffer containing 0.1 MNaCl, 5 mM EDTA, 50 μM sodium orthovanadate, 1% Triton X-100, and protease inhibitor tablet (Roche Diagnostics, Indianapolis, Ind.) in 50 mM Tris buffer, pH 7.5, loaded onto 4 to 12% Bis-Tris gel (Invitrogen), transferred to polyvinylidene difluoride membrane, and incubated with the appropriate antibodies. Anti-pThr^202/Tyr^204-Erk, anti-Erk, anti-pThr^389-p70 S6 kinase, anti-p70 S6 kinase, anti-pSer^473-Akt, and anti-Akt antibodies were purchased from Cell Signaling Technology (Danvers, Mass.); mouse anti-human HIF-1α antibody was purchased from BD Pharmingen (San Diego, Calif.); rabbit anti-mouse HIF-1α antibody was purchased from Abcam Inc. (Cambridge, Mass.); and anti-GAPDH antibody was purchased from Santa Cruz Biotechnology Inc. (Santa Cruz, Calif.).

CT26 cells [5] = assay: Pulmonary metastasis in vivo: CT26 lung tumors in BALB/c mice; design: species or system mouse; settings: CT26 via tail vein
Procedure: BALB/c mice were intravenously injected with 2×10^4 CT26 cells in 100 μL of PBS via tail vein injection and the mice were treated with bHDL at 10 mg/kg/day administered SQ for 3 weeks; or treated with bHDL at 100 mg/kg/day administered in a chow diet for 3 weeks. After 3 weeks treatment, the mice were sacrificed; lungs were harvested, weighed and fixed with Bouin's solution (Sigma). Tumor nodules on the lung surface were counted.
BALB/c mice were intravenously injected with 2×10^4 CT26 cells in […] of PBS via tail vein injection and the mice were treated with L-4F or sc-4F at 10 mg/kg/d administered subcutaneously for 3 weeks, or treated with sc-4F or L-4F or G* peptide at 100 mg/kg/d administered in a chow diet for 3 weeks. After 3 weeks treatment, the mice were sacrificed; lungs were harvested, weighed, and fixed with Bouin solution (Sigma). Tumor nodules on the lung surface were counted.

APC^min/+ mice = APC^min/+ mice study, intestinal tumors; assay type: in vivo; settings: C57BL/6J-APC^min/+ mice; 100 mg/kg/d in mouse chow for 8 weeks
Procedure: (§2) 6-week-old APC^Min/+ male mice on a C57BL/6J background were treated with bHDL 100 mg/kg/day administered in a chow diet. After 8 weeks treatment, mice were sacrificed. The entire intestine was immediately removed, fixed in formalin and 70% ethanol. The intestine was opened and examined under a dissecting microscope to count and measure the tumors.
as §2, with “Six-week-oldAPC^min/+” for “6-week-old APC^Min/+”, “L-4F or sc-4F at” for “bHDL”, “mg/kg/d” for “mg/kg/day”

[6] = 10 mg/kg/d subcutaneously for 3 weeks
[7] = 100 mg/kg/d in chow diet for 3 weeks

ApoA-II: a protein that is also associated with HDL like apoA-I [reference compound]
UV-induced cell death (cell viability) (NIH3T3 cells [1]): did not prevent UV-induced cell death

ApoA-l: full-length and unmodified ApoA-I, typically human, a 28.2 kDa protein of 244 amino acids
UV-induced cell death (cell viability) (NIH3T3 cells [1]): protects NIH3T3 cells from UV-induced cell death

Ac-LRKLRKRLLRDWLKAFYDKVAEKLKEAF-NH2 [28AA, LRKLRKRLLRDWLKAFYDKVAEKLKEAF, reference compound]
flank tumor weight (CT26 cells [2]): 188 mg
NIH3T3 cell viability (NIH3T3 cells [3]): not affected
Cell viability reduced by, compared with control (CT26 cells [4]): 70%

CC(C)C[C@@H](C=O)NC(=O)[C@H](CC(C)C)NC(=O)[C@H](CC(C)C)NC(=O)OCc1ccccc1 [MG-132, N-(benzyloxycarbonyl)leucinylleucinylleucinal-Z-Leu-Leu-Leu-al, reference compound] (Cbz-Leu-Leu-Leu-aldehyde)
effect on the L-4F inhibition of insulin-mediated HIF-1α expression (HIF-1α): led to a reversal of the inhibitory effect of L-4F

LRKLRKRLLR LVGRQLEEFL (LRKLRKRLLRLVGRQLEEFL; synthetic peptide mimetic) [20AA]
CT26 cell viability vs vehicle-treated controls (CT26 cells [4]): reduced cell viability

CC(=O)N[C@@H](CC(=O)O)C(=O)N[C@@H](Cc1c[nH]c2ccccc12)C(=O)N[C@@H](Cc1ccccc1)C(=O)N[C@@H](CCCCN)C(=O)N[C@@H](C)C(=O)N[C@@H](Cc1ccccc1)C(=O)N[C@@H](Cc1ccc(O)cc1)C(=O)N[C@@H](CC(=O)O)C(=O)N[C@@H](CCCCN)C(=O)N[C@H](C(=O)NC(C)(C)C(=O)N[C@@H](CCC(=O)O)C(=O)N[C@@H](CCCCN)C(=O)N[C@@H](Cc1ccccc1)C(=O)N[C@@H](CCCCN)C(=O)N[C@@H](CCC(=O)O)C(=O)NC(C)(C)C(=O)N[C@@H](Cc1ccccc1)C(N)=O)C(C)C [L-4F2, Ac-D-W-F-K-A-F-Y-D-K-V-Aib-E-K-F-K-E-Aib-F-NH2] (HELM PEPTIDE1{[ac].D.W.F.K.A.F.Y.D.K.V.[Aib].E.K.F.K.E.[Aib].F.[am]}$$$$V2.0)
flank tumor volume (CT26 cells [2]): 197 mm^3
flank tumor weight (CT26 cells [2]): 118 mg
NIH3T3 cell viability (NIH3T3 cells [3]): not affected
Cell viability reduced by, compared with control (CT26 cells [4]): more than 30%
CT26 cell viability vs vehicle-treated controls (CT26 cells [4]): reduced cell viability

Ac-D-W-F-A-K-D-Y-F-K-K-A-F-V-E-E-F-A-K-NH2 (Ac-DWFAKDYFKKAFVEEFAK-NH2) [sc-4F, reference compound]
flank tumor volume (CT26 cells [2]): 555 mm^3
flank tumor weight (CT26 cells [2]): 273 mg
flank tumor weights (CT26 cells [2]; Example 5, 10 mg/kg subcutaneously daily for 15 days): 778 mg
lung weights (CT26 cells [5]; [6]): 280 mg
tumor numbers counted on the lung surface (CT26 cells [5]; [6]): 33
lung weights (CT26 cells [5]; [7]): 296 mg
tumor numbers on the lung surface (CT26 cells [5]; [7]): 21
numbers of tumors of diameter 1-3 mm (APC^min/+ mice): 56.5
numbers of tumors of diameter >3 mm (APC^min/+ mice): 12.8
total tumor numbers in the intestinal tract, percent of the control (APC^min/+ mice): 100%

K4,15-4F: SEQ ID NO: 27; based on K14,15 peptides of Nayyar et al., lysines substituted with arginines at residues 4 and 15 (DWFRAFYDKVAEKFREAF; synthetic peptide mimetic)
CT26 cell viability vs vehicle-treated controls (CT26 cells [4]): reduced cell viability

K4,15-4F2: SEQ ID NO: 28; K4,15-4F further modified with Aib substitution for alanine at positions 11 and 17 (DWFRAFYDKV[Aib]EKFRE[Aib]F)
CT26 cell viability vs vehicle-treated controls (CT26 cells [4]): reduced cell viability

CC(=O)N[C@@H](CC(C)C)C(=O)N[C@@H](CCCNC(=N)N)C(=O)N[C@@H](CCCCN)C(=O)N[C@@H](CC(C)C)C(=O)N[C@@H](CCCNC(=N)N)C(=O)N[C@@H](CCCCN)C(=O)N[C@@H](CCCNC(=N)N)C(=O)N[C@@H](CC(C)C)C(=O)N[C@@H](CC(C)C)C(=O)N[C@@H](CCCNC(=N)N)C(=O)N[C@@H](CC(=O)O)C(=O)N[C@@H](Cc1c[nH]c2ccccc12)C(=O)N[C@@H](CC(C)C)C(=O)N[C@@H](CCCCN)C(=O)N[C@@H](C)C(=O)N[C@@H](Cc1ccccc1)C(=O)N[C@@H](Cc1ccc(O)cc1)C(=O)N[C@@H](CC(=O)O)C(=O)N[C@@H](CCCCN)C(=O)N[C@H](C(=O)NC(C)(C)C(=O)N[C@@H](CCC(=O)O)C(=O)N[C@@H](CCCCN)C(=O)N[C@@H](CC(C)C)C(=O)N[C@@H](CCCCN)C(=O)N[C@@H](CCC(=O)O)C(=O)NC(C)(C)C(=O)N[C@@H](Cc1ccccc1)C(N)=O)C(C)C [28AA-2, LRKLRKRLLRDWLKAFYDKV-Aib-E-K-L-K-E-Aib-F] (HELM PEPTIDE1{[ac].L.R.K.L.R.K.R.L.L.R.D.W.L.K.A.F.Y.D.K.V.[Aib].E.K.L.K.E.[Aib].F.[am]}$$$$V2.0; N-terminus and C-terminus assumed)
NIH3T3 cell viability (NIH3T3 cells [3]): not affected
